For orientation: AUC(0-inf) means total exposure, with the tail of the curve extrapolated. The low end stands for low exposure, the high end for high exposure. One may read the clearance as the rate of elimination divided by the concentration. Higher therefore signals efficient removal. Usually Cmax stands for the highest concentration seen after dosing. A word on the Tmax: it is the time at which the peak concentration occurs. One may read the inhibition as the percentage by which the read-out fell short of the control. Low readings indicate a response near the control, high ones a response far below the control.

The text below walks through data of patent publication US20260174786A1, “A NITROGEN-CONTAINING SPIROCYCLIC COMPOUND, PHARMACEUTICAL COMPOSITION AND USE THEREOF” (Prime Gene Therapeutics Co., Ltd., priority 2022, published 2026).

The nature of series [1]: Liver microsome metabolism stability test (human). The format is in vitro ADME. The following applies: human liver microsomes, 1 μM compound. The procedure: (§1) Two separate experiments were conducted. a) NADPH: 10 μL of 20 mg/mL liver microsomes and 40 μL of 10 mM NADPH were added to a culture medium. The final concentrations of microsomes and NADPH were 0.5 mg/mL and 1 mM, respectively. b) NADPH free: 10 μL of 20 mg/mL liver microsomes and 40 μL of ultrapure H2O were added to a culture medium. The final concentration of microsomes was 0.5 mg/mL.
(§2) At the beginning of the reaction, 4 μL of 100 μM test compound solution or a control compound solution with a final concentration of 1 μM were added, and proceed at 37° C.
(§3) 50 μL aliquots were taken from the reaction solution at 0, 7, 15, 30, and 60 minutes. The reaction was stopped by adding 4 volumes of cold acetonitrile and IS (100 nM alprazolam, 200 nM labetalol, 200 nM caffeine, and 2 μM ketoprofen). The samples were centrifuged at 3220 grams for 40 minutes. 100 μL supernatant divided equally was mixed with 100 μL of ultrapure H2O, and use for LC-MS/MS analysis.

Series [2] in a line: Liver microsome metabolism stability test (rat). Particulars: rat liver microsomes, 1 μM compound. The format is in vitro ADME. The protocol:
as §1, §2, §3
In general terms: Liver microsomes are vesicles of endoplasmic reticulum, rich in cytochrome P450 enzymes.

Series [3] is described as follows: Balanced dialysis plasma protein binding test (rat). It is filed as in vitro ADME. The procedure: (§4) 1. Immersing a dialysis membrane (water: 60 minutes, 20% ethanol: 20 minutes, dialysis buffer: 20 minutes). 2. Diluting the test compound in dimethyl sulfoxide (working solution) to 200 μM. 3. Thawing the plasma in a 37° C. water bath and centrifuge the plasma at 3220 g for 10 minutes to remove blood clots. 4. Transferring the supernatant to a new tube and preheating it in a 37° C. water bath for 10 minutes. 5. Assembling HTD dialysis equipment according to the manufacturer's guidelines. 6. Adding 3 μL of 200 μM test compound to 597 μL of plasma and rotating at 1000 rpm for 2 minutes. 7. Transferring 50 μL of spiked plasma to a 96 well plate, then adding 50 μL of dialysis buffer and 200 μL of methanol, using IS * as the T0 sample. 8. Adding 120 μL of spiked plasma and 120 μL of dialysis buffer in duplicate into the chamber of the HTD dialysis device. 9. Covering the dialysis equipment with a breathable cover and incubating the dialysis equipment and the remaining spiked plasma at 37° C. (100 rpm, 5% CO2) for 6 hours. 10. Transferring 50 μL of dialyzed sample from the dialysis buffer and the plasma chamber to a separate 96 well plate, then adding 50 μL of blank plasma or dialysis buffer and 200 μL of methanol, with IS * as the B and P samples. 11. Transferring 50 μL of remaining spiked plasma (as described in step 9) to a 96 well plate, then adding 50 μL of dialysis buffer and 200 μL of methanol, with IS * as the T6 sample. 12. Centrifuging the sample plate at 3220 g for 40 minutes. 13. Transferring 100 μL of supernatant onto an analytical plate containing an appropriate volume of water for LC-MS/MS. 14. Data analysis.

Series [4] in a line: Balanced dialysis plasma protein binding test (human). It is filed as in vitro ADME. The protocol:
as §4

The nature of series [5]: Pharmacokinetic experiments in male SD rats. The format is in vivo, rat. The procedure: Male SD rats were grouped in groups of 3 rats each and orally administered with the compound of Example (10 mg/kg) and intravenously injected with the compound of Example (2 mg/kg). Animals were fasted overnight before the experiment, from 10 hours before administration to 4 hours after administration. Blood samples were collected at 0.25, 0.5, 1, 2, 4, 8, and 24 hours after administration in the oral group, and at 0.083, 0.25, 0.5, 1, 2, 4, 8, and 24 hours after injection in the intravenous group. After anesthesia with isoflurane using a small animal anesthesia machine, 0.3 mL of whole blood was collected through the retinal venous plexus, and placed in a heparin anticoagulant tube. The sample was centrifuged at 4° C. and 4000 rpm for 5 minutes, and the plasma was transferred to the centrifuge tube and stored at −80° C. until analysis. The plasma samples were extracted using protein precipitation method, and the extract was analyzed by LC-MS/MS.

Another series deals with hTRPV4 (Homo sapiens, UniProt Q9HBA0). Kind of series: Inhibition rate on different hTRPs: hTRPV4. It is filed as cell-based.
In another series the target is hTRPA1 (Homo sapiens, UniProt O75762). Kind of series: Inhibition rate on different hTRPs: hTRPA1. The format is cell-based.
Series [6] is described as follows: Stability assessment of compounds at room temperature under 92.5% humidity (LC-MS). Particulars: 92.5% humidity. It is filed as physicochemical. The procedure: Taking the compound of Example 21 and KM-001-E1 in WO2021154966A1 as examples, the stability thereof was compared:
Compound of Example 21 and KM-001-E1 were accurately weighed and placed in penicillin bottles, and placed at room temperature under 92.5% humidity (open) conditions for 5-10 days to investigate the stability of the compounds.
• instrument: Thermo U3000-ISQEC • column: Xtimate UHPLC C18 1.8 μm 4.6*50 mm • Column temperature: 35° C. • wavelength: 210 nm, 254 nm • mobile phase A: 0.05% formic acid aqueous solution; mobile phase B: 0.05% formic acid acetonitrile; gradient: 30% B 0-1.2 min, 95% B 1.2-3.3 min, 30% B 3.3-4.5 min;
Analyzing the degradation impurities of each compound under 92.5% humidity conditions using LC-MS: The main impurities in Example 21 had m/z 427.17, with a retention time of 2.55 minutes. After being left for 10 days, the peak area proportion was only 0.3%; The main impurities in KM-001-E1 has m/z=431.14 and m/z=415.16, with retention times of 2.31 minutes and 2.64 minutes, respectively. […] Based on LC-MS and NMR data analysis, it can be inferred that the main impurities produced in Example 21 are ketones, while the main impurities produced in KM-001-E1 are aldehydes and carboxylic acids.

Setting [7] is: male, SD, rat, plasma, intravenous, 2 mg/kg.
The mark [8] stands for this setting: male, SD, rat, plasma, po, gavage, 10 mg/kg.

Chain of hTRPA1 (O75762 whole entry): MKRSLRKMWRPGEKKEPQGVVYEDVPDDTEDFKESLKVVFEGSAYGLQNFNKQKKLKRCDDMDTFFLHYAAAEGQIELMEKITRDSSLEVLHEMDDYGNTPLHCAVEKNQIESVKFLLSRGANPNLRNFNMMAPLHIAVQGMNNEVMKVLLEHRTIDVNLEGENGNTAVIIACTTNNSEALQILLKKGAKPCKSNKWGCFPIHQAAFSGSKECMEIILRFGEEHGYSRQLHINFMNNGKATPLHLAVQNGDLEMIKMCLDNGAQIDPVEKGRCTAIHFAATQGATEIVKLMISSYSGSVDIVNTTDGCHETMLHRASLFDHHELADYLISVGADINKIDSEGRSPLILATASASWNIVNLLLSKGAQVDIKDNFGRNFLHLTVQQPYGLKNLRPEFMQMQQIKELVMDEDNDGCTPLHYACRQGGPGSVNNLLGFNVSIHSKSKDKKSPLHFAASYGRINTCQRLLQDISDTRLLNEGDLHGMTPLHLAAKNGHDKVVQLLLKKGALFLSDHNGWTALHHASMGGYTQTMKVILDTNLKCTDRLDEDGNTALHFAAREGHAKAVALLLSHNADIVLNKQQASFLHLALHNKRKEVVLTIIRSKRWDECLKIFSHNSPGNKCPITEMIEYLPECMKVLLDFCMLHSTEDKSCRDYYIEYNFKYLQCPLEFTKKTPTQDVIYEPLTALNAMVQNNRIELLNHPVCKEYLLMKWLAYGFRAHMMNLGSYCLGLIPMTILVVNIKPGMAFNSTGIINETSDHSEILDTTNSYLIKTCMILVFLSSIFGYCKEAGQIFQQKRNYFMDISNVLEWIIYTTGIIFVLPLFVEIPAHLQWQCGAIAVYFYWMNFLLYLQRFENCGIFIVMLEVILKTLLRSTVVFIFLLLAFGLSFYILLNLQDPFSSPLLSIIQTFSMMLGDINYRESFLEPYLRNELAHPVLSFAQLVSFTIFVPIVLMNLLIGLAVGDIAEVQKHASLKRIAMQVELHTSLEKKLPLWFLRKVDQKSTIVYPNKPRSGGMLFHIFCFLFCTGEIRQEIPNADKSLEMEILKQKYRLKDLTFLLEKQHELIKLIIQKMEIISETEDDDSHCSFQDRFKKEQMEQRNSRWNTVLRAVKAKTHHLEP
Chain of hTRPV4 (Q9HBA0 whole entry): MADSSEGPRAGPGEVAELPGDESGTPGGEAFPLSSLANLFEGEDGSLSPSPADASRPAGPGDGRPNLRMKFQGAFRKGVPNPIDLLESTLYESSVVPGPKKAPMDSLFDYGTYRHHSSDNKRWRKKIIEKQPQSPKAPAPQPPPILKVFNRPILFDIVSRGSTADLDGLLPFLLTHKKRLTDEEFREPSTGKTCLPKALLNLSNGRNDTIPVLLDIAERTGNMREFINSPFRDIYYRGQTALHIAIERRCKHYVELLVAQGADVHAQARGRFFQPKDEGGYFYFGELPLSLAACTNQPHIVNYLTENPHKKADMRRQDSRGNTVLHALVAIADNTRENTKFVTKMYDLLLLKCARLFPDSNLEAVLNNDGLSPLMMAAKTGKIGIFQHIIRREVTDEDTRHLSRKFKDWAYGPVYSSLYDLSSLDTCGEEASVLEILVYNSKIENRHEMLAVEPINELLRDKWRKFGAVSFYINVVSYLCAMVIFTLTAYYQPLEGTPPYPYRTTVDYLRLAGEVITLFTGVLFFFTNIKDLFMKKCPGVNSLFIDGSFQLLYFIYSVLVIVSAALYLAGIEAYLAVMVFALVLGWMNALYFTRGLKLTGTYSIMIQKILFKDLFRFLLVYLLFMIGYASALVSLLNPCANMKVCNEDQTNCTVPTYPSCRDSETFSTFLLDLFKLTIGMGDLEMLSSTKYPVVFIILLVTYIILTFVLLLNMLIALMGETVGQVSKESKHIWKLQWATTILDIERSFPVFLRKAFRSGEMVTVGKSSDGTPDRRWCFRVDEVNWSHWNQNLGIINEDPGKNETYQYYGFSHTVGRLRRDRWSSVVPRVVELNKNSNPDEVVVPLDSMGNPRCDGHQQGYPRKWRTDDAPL

Regarding `O=C(c1ccc(F)cn1)N1CCC2(CC(O)c3cc(-c4ccccc4C4CC4)ccc32)C1` (stereo not drawn) [Example 15, (5-(2-cyclopropylphenyl)-3-hydroxy-2,3-dihydrospiro[indene-1,3′-pyrrolidine]-1′-yl)(5-fluoropyridin-2-yl) ketone], in series [1], the “in vitro Clint” value is reported as 70.41 microliters/minute/milligrams. For the same molecule, the half-life at 1 μM in series [1] (read-out: in vitro T1/2) was found to be 0.328 h. Also, the “in vitro Clint” value in series [2] was 53.68 microliters/minute/milligrams. Also, the half-life at 1 μM in series [2] (read-out: in vitro T1/2) amounted to 0.43 h. In series [3], this molecule returned a recover % of 92.94%. For the same molecule, in series [3] (6 hours), the remaining % is 102.46%. In series [3] (6 hours dialysis), the binding % is listed as 99.78% and the dissociated % came to 0.22%. The recover % in series [4] stood at 87.63%. In addition, in series [4] (6 hours), the remaining % came to 97.37%. In series [4] (6 hours dialysis), this molecule displayed a binding % of 99.58% and a dissociated % of 0.42%. In addition, the F in series [5] (gavage, 10 mg/kg) is 80.6%. In addition, in series [5] (setting [7]), the AUC(0-inf) amounted to 10500 ng·h/mL, the C0 was found to be 4060 ng/mL, the clearance was 3.3 mL/min/kg and the half-life was 1.63 h. Besides, the Vd in series [5] (male, SD, rat, plasma, intravenous, 2 mg/kg, read-out: Vss) was 0.41 L/kg. In addition, in series [5] (setting [8]), the AUC(0-inf) was 42200 ng·h/mL, the Cmax turned out to be 8050 ng/mL, the time to peak (Tmax) was determined as 1.33 h and the half-life is 1.88 h.

Consider `O=C(c1ccc(F)cn1)N1CC[C@@]2(C[C@@H](O)c3cc(-c4ccccc4C4CC4)ccc32)C1` [Example 21, ((1S,3R)-5-(2-cyclopropylphenyl)-3-hydroxy-2,3-dihydrospiro[indene-1,3′-pyrrolidine]-1′-yl)(5-fluoropyridin-2-yl)ketone], for which the inhibition at 0.3 µM against hTRPV4 (hTRPV4, 0.3 μM) came to 29.3%; on hTRPA1 (hTRPA1, 0.3 μM), 10.7%. The Selectivity ratio at hTRPV4 (inhibition rate on TRPV3 / inhibition rate on hTRPV4, 0.3 μM) was found to be 3.1X; on hTRPA1 (inhibition rate on TRPV3 / inhibition rate on hTRPA1, 0.3 μM), 8.4X. The “stability compared with KM-001-E1 / compounds of WO2021154966A1” value in series [6] is reported as “better chemical stability than the primary alcohol compound in WO2021154966A1”.
